{"source": "paper PMC10587151", "about": "“Ligand activation mechanisms of human KCNQ2 channel” (Nature Communications, 2023)", "molecules": {"B1": {"name": "human KCNQ2 (residues 64-674, C-terminal strep tag) (domain or fragment, UniProt O43526-1 64-674, looked up)", "chain": "AGKPPKRNAFYRKLQNFLYNVLERPRGWAFIYHAYVFLLVFSCLVLSVFSTIKEYEKSSEGALYILEIVTIVVFGVEYFVRIWAAGCCCRYRGWRGRLKFARKPFCVIDIMVLIASIAVLAAGSQGNVFATSALRSLRFLQILRMIRMDRRGGTWKLLGSVVYAHSKELVTAWYIGFLCLILASFLVYLAEKGENDHFDTYADALWWGLITLTTIGYGDKYPQTWNGRLLAATFTLIGVSFFALPAGILGSGFALKVQEQHRQKHFEKRRNPAAGLIQSAWRFYATNLSRTDLHSTWQYYERTVTVPMYSSQTQTYGASRLIPPLNQLELLRNLKSKSGLAFRKDPPPEPSPSKGSPCRGPLCGCCPGRSSQKVSLKDRVFSSPRGVAAKGKGSPQAQTVRRSPSADQSLEDSPSKVPKSWSFGDRSRARQAFRIKGAASRQNSEEASLPGEDIVDDKSCPCEFVTEDLTPGLKVSIRAVCVMRFLVSKRKFKESLRPYDVMDVIEQYSAGHLDMLSRIKSLQSRVDQIVGRGPAITDKDRTKGPAEAELPEDPSMMGRLGKVEKQVLSMEKKLDFLVNIYMQRMGIPPTETEAYFGAKEPEPAPPYHSPE", "notes": "Human voltage-gated potassium channel KCNQ2, N- and C-terminal regions truncated, residues 64-674; numbers count on: NP_004509.2; The vector is a modified pEZT-BM; also called WT KCNQ2; KCNQ2 of the KCNQ2-CaM complex; source: HEK293S suspension cells, BacMam baculovirus, co-expressed with CaM, purified (Strep-Tactin, Superose 6); not shown: strep tag, C-terminal, kept"}}, "key": {"KCNQ2 [1]": {"target": "T1, KCNQ2 (Homo sapiens, UniProt O43526, F104A)", "T1 construct": "residues 64–674; with calmodulin (CaM)", "T1 sequence (O43526 64-674 F104A)": "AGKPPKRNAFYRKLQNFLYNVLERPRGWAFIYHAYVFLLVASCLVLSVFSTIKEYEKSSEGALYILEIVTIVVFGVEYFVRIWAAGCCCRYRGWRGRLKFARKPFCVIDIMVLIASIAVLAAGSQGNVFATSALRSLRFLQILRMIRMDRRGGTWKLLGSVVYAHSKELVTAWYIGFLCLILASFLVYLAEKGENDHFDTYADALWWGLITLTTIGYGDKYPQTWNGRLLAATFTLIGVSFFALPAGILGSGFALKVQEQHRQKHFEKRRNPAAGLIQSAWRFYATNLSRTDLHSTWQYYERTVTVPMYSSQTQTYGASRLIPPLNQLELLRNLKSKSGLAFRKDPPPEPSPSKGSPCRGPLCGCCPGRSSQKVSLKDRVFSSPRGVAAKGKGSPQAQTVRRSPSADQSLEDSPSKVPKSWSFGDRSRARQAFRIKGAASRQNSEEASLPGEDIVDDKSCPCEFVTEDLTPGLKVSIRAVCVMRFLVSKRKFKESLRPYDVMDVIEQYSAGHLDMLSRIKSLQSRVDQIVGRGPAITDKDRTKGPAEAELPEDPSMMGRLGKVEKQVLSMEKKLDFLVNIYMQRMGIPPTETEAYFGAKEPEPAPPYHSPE", "assay": "cryo-EM structure ([…] Å), open state, with one CBD co-bound", "assay_type": "binding"}, "KCNQ2 [2]": {"target": "T2, KCNQ2 (Homo sapiens, UniProt O43526)", "assay": "cryo-EM structure ([…] Å), with CBD co-bound", "parameters": "residues 64–674; with calmodulin (CaM)"}, "KCNQ2 [3]": {"target": "T2, KCNQ2", "assay": "cryo-EM structure ([…] Å); whole-cell patch clamp in CHO cells for the EC50", "assay_type": "cell-based", "parameters": "residues 64–674; with calmodulin (CaM)"}, "KCNQ2 [4]": {"target": "T2, KCNQ2", "assay": "cryo-EM structure ([…] Å); whole-cell patch clamp in CHO cells for the EC50", "assay_type": "cell-based", "parameters": "wild-type human KCNQ2 cDNA in pcDNA5/FRT, expressed in CHO cells, whole-cell patch clamp; no CaM co-transfection stated; not the 64-674 cryo-EM construct"}, "KCNQ2 [5]": {"target": "T1, KCNQ2", "assay": "cryo-EM structure ([…] Å), closed state", "assay_type": "binding"}, "[6]": {"target": "the molecule itself", "assay": "cryo-EM structure; KCNQ2 (strep tag) and CaM (His tag) co-expressed in HEK293S, complex purified on Strep-Tactin and Superose 6 in 20 mM Tris pH 8.0, 150 mM KCl, 0.02% GDN; incubated with 0.25 mM CBD, 0.15 mM HN37 and/or 1 mM PIP2; C4 symmetry; closed and open states"}}, "note": "Where a name gives a salt, the structure may show the parent alone. Read-outs that look alike come from different tables or passages of the source."}
{"molecule": "CCCCCCCC(=O)OC[C@H](COP(=O)(O)O[C@@H]1[C@H](O)[C@H](O)[C@@H](OP(=O)(O)O)[C@H](OP(=O)(O)O)[C@H]1O)OC(=O)CCCCCCC", "note": "[PIP2, 1,2-dioctanoyl-sn-glycero-3-phospho-(1’-myo-inositol-4’,5’-bisphosphate) (ammonium salt)]", "values": [{"measurement": "cryo-EM structure (3.5 Å), open state, with one CBD co-bound", "setting": "KCNQ2 [1]", "result": "KCNQ2-CaMF104A-CBD-PIP2-II is in an open state with the PIP2 bound"}, {"measurement": "cryo-EM structure (3.1 Å), with CBD co-bound", "setting": "KCNQ2 [2]", "result": "between VSD and PD, one PIP2 molecule is assigned, with its fatty acid chains switched by S1III/S4III and S5II"}]}
{"molecule": "C#CCN(Cc1ccc(F)cc1)c1cc(C)c(NC(=O)OC)c(C)c1", "note": "[HN37]", "values": [{"measurement": "EC50", "setting": "KCNQ2 [3]", "result": "28.5 ± 2.99", "unit": "nM"}]}
{"molecule": "C=C(C)[C@@H]1CCC(C)=C[C@H]1c1c(O)cc(CCCCC)cc1O", "note": "[CBD, cannabidiol]", "values": [{"measurement": "EC50", "setting": "KCNQ2 [4]", "result": "4500 ± 1790", "unit": "nM"}, {"measurement": "cryo-EM structure (2.7 Å), closed state", "setting": "KCNQ2 [5]", "result": "In both maps, CBDA molecules maintain strong densities but those for CBDB are barely observed"}]}
{"molecule": "B1", "values": [{"measurement": "stoichiometry N", "setting": "[6]", "result": 4}]}
